Data reported in ChEMBL document CHEMBL1909046, “DrugMatrix in vitro pharmacology data”.

Experiments:
[1] = biological target: T1, Adenosine receptor A3 (Homo sapiens, UniProt P0DMS8); format: cell membranes, CHO-K1, Membrane; conditions: cho-k1;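 further: radioligand binding assay with AB-MECA serving as the labeled ligand; in other assays of this panel Not Active means under 50% inhibition at 10 µM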
T1 sequence (P0DMS8 whole entry): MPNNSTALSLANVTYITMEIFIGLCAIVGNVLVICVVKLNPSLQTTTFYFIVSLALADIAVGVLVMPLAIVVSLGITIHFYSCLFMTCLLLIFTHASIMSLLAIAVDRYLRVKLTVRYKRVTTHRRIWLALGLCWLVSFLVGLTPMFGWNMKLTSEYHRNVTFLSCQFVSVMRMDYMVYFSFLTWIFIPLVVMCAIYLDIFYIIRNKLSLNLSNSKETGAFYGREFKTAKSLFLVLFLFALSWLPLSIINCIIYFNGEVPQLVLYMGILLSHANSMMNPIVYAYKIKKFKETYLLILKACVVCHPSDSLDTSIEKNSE

[2] = DRUGMATRIX: Platelet-Derived Growth Factor (PDGF) radioligand binding (ligand: [125I] PDGF); format: cell-based; conditions: nih3t3; Not Active = under 50% inhibition at 10 µM
[3] = DRUGMATRIX: GABAA, Flunitrazepam, Central radioligand binding (ligand: [3H] Flunitrazepam); format: cell membranes, Rattus norvegicus, Wistar, Brain, Membrane; conditions: Not Active = under 50% inhibition at 10 µM
[4] = biological target: Substance-P receptor (Homo sapiens, UniProt P25103); format: cell membranes, CHO, Membrane; conditions: cho; further: in other assays of this panel Not Active means under 50% inhibition at 10 µM
Chain of Substance-P receptor (P25103 whole entry): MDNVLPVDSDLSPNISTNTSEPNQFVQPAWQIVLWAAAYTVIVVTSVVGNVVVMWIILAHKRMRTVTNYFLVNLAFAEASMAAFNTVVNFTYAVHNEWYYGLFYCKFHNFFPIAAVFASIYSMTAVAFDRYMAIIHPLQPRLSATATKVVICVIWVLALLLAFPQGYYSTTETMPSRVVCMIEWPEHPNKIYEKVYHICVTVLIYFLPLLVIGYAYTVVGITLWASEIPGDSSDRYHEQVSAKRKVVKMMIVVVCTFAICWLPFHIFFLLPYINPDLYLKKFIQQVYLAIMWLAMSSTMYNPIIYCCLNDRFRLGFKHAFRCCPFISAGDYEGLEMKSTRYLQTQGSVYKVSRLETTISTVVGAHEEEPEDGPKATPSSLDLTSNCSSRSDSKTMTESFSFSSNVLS

[5] = DRUGMATRIX: Glutamate, AMPA radioligand binding (ligand: [3H] AMPA); format: cell membranes, Rattus norvegicus, Wistar, Cerebral cortex, Membrane; conditions: Not Active = under 50% inhibition at 10 µM
[6] = biological target: Carbonic anhydrase 2 (Homo sapiens, UniProt P00918); assay: DRUGMATRIX: Carbonic Anhydrase II enzyme inhibition (substrate: 4-Nitrophenyl acetate (4-NPA)); format: tissue-based, Erythrocyte; conditions: erythrocyte; Not Active = under 50% inhibition at 10 µM
[7] = DRUGMATRIX: ATPase, Na+/K+ enzyme inhibition (substrate: ATP); format: tissue-based, Sus scrofa, Heart; conditions: Not Active = under 50% inhibition at 10 µM

CC(C)[C@@]1(NC(=O)[C@@H]2C[C@@H]3c4cccc5[nH]cc(c45)C[C@H]3N(C)C2)O[C@@]2(O)[C@@H]3CCCN3C(=O)[C@H](Cc3ccccc3)N2C1=O.CS(=O)(=O)O [DIHYDROERGOCRISTINE MESYLATE]
Not Active: IC50 [1] | IC50 [2] | Ki [2] | IC50 [3] | Ki [3] | IC50 [4] | IC50 [5] | Ki [5] | IC50 [6] | IC50 [7] | Ki [7]

CC(=O)O[C@@]12CO[C@@H]1C[C@H](O)[C@@]1(C)C(=O)[C@H](O)C3=C(C)[C@@H](OC(=O)[C@H](O)[C@@H](NC(=O)OC(C)(C)C)c4ccccc4)C[C@@](O)([C@@H](OC(=O)c4ccccc4)[C@H]21)C3(C)C.O.O.O [DOCETAXEL]
Not Active: IC50 [1] | IC50 [2] | Ki [2] | IC50 [3] | Ki [3] | IC50 [4] | IC50 [5] | Ki [5] | IC50 [6] | IC50 [7] | Ki [7]

COc1cc2nc(N3CCN(C(=O)C4COc5ccccc5O4)CC3)nc(N)c2cc1OC (centres undefined) [DOXAZOSIN]
Not Active: IC50 [1] | IC50 [2] | Ki [2] | IC50 [3] | Ki [3] | IC50 [4] | IC50 [5] | Ki [5] | IC50 [6] | IC50 [7] | Ki [7]

C[C@H]1c2cccc(O)c2C(=O)C2=C(O)[C@]3(O)C(=O)C(C(N)=O)=C(O)[C@@H](N(C)C)[C@@H]3[C@@H](O)[C@@H]21.O [DOXYCYCLINE]
Not Active: IC50 [1] | IC50 [2] | Ki [2] | IC50 [3] | Ki [3] | IC50 [4] | IC50 [5] | Ki [5] | IC50 [6] | IC50 [7] | Ki [7]

O=C(CCCN1CC=C(n2c(=O)[nH]c3ccccc32)CC1)c1ccc(F)cc1 [DROPERIDOL]
Not Active: IC50 [1] | IC50 [2] | Ki [2] | IC50 [3] | Ki [3] | IC50 [4] | IC50 [5] | Ki [5] | IC50 [6] | IC50 [7] | Ki [7]

CC(C)[C@H]1C(=O)N2CCC[C@H]2[C@]2(O)O[C@](NC(=O)[C@@H]3C=C4c5cccc6[nH]cc(c56)C[C@H]4N(C)C3)(C(C)C)C(=O)N12 [ERGOCORNINE]
Not Active: IC50 [1] | IC50 [2] | Ki [2] | IC50 [3] | Ki [3] | IC50 [4] | IC50 [5] | Ki [5] | IC50 [6] | IC50 [7] | Ki [7]

C[C@]12CC[C@@H]3c4ccc(O)cc4CC[C@H]3[C@@H]1CCC2=O [ESTRONE]
Not Active: IC50 [1] | IC50 [2] | Ki [2] | IC50 [3] | Ki [3] | IC50 [4] | IC50 [5] | Ki [5] | IC50 [6] | IC50 [7] | Ki [7]

OC(Cn1cncn1)(Cn1cncn1)c1ccc(F)cc1F [FLUCONAZOLE]
Not Active: IC50 [1] | IC50 [2] | Ki [2] | IC50 [3] | Ki [3] | IC50 [4] | IC50 [5] | Ki [5] | IC50 [6] | IC50 [7] | Ki [7]

CC(C)C(=O)Nc1ccc([N+](=O)[O-])c(C(F)(F)F)c1 [FLUTAMIDE]
Not Active: IC50 [1] | IC50 [2] | Ki [2] | IC50 [3] | Ki [3] | IC50 [4] | IC50 [5] | Ki [5] | IC50 [6] | IC50 [7] | Ki [7]

N=C(N)NCCN1CCCCCCC1 [GUANETHIDINE]
Not Active: IC50 [1] | IC50 [2] | Ki [2] | IC50 [3] | Ki [3] | IC50 [4] | IC50 [5] | Ki [5] | IC50 [6] | IC50 [7] | Ki [7]

CC1(C)O[C@@H]2C[C@H]3[C@@H]4CCC5=CC(=O)CC[C@]5(C)[C@@]4(F)[C@@H](O)C[C@]3(C)[C@]2(C(=O)CCl)O1 [HALCINONIDE]
Not Active: IC50 [1] | IC50 [2] | Ki [2] | IC50 [3] | Ki [3] | IC50 [4] | IC50 [5] | Ki [5] | IC50 [6] | IC50 [7] | Ki [7]

O=c1[nH]c(=O)n([C@H]2C[C@H](O)[C@@H](CO)O2)cc1I [IDOXURIDINE]
Not Active: IC50 [1] | IC50 [2] | Ki [2] | IC50 [3] | Ki [3] | IC50 [4] | IC50 [5] | Ki [5] | IC50 [6] | IC50 [7] | Ki [7]

CC1Cc2ccccc2N1NC(=O)c1ccc(Cl)c(S(N)(=O)=O)c1 (centres undefined) [INDAPAMIDE]
Not Active: IC50 [1] | IC50 [2] | Ki [2] | IC50 [3] | Ki [3] | IC50 [4] | IC50 [5] | Ki [5] | IC50 [6] | IC50 [7] | Ki [7]

Nc1nc(N)nc(-c2cc(Cl)ccc2Cl)n1.O=C(O)/C=C\C(=O)O [IRSOGLADINE MALEATE]
Not Active: IC50 [1] | IC50 [2] | Ki [2] | IC50 [3] | Ki [3] | IC50 [4] | IC50 [5] | Ki [5] | IC50 [6] | IC50 [7] | Ki [7]

CCC(C)n1ncn(-c2ccc(N3CCN(c4ccc(OCC5COC(Cn6cncn6)(c6ccc(Cl)cc6Cl)O5)cc4)CC3)cc2)c1=O (centres undefined) [ITRACONAZOLE]
Not Active: IC50 [1] | IC50 [2] | Ki [2] | IC50 [3] | Ki [3] | IC50 [4] | IC50 [5] | Ki [5] | IC50 [6] | IC50 [7] | Ki [7]

CCCCN1CCCC[C@H]1C(=O)Nc1c(C)cccc1C [LEVOBUPIVACAINE]
Not Active: IC50 [1] | IC50 [2] | Ki [2] | IC50 [3] | Ki [3] | IC50 [4] | IC50 [5] | Ki [5] | IC50 [6] | IC50 [7] | Ki [7]

CCCCc1nc(Cl)c(CO)n1Cc1ccc(-c2ccccc2-c2nnn[nH]2)cc1 [LOSARTAN]
Not Active: IC50 [1] | IC50 [2] | Ki [2] | IC50 [3] | Ki [3] | IC50 [4] | IC50 [5] | Ki [5] | IC50 [6] | IC50 [7] | Ki [7]

Sc1ncnc2nc[nH]c12 [MERCAPTOPURINE ANHYDROUS]
Not Active: IC50 [1] | IC50 [2] | Ki [2] | IC50 [3] | Ki [3] | IC50 [4] | IC50 [5] | Ki [5] | IC50 [6] | IC50 [7] | Ki [7]

C[C@](N)(Cc1ccc(O)c(O)c1)C(=O)O [METHYLDOPA]
Not Active: IC50 [1] | IC50 [2] | Ki [2] | IC50 [3] | Ki [3] | IC50 [4] | IC50 [5] | Ki [5] | IC50 [6] | IC50 [7] | Ki [7]

C[C@]12CCC(=O)C=C1CC[C@@H]1[C@@H]2CC[C@@]2(C)[C@H]1CC[C@]2(C)O [METHYLTESTOSTERONE]
Not Active: IC50 [1] | IC50 [2] | Ki [2] | IC50 [3] | Ki [3] | IC50 [4] | IC50 [5] | Ki [5] | IC50 [6] | IC50 [7] | Ki [7]

Cc1ccccc1N1C(=O)c2cc(S(N)(=O)=O)c(Cl)cc2NC1C (centres undefined) [METOLAZONE]
Not Active: IC50 [1] | IC50 [2] | Ki [2] | IC50 [3] | Ki [3] | IC50 [4] | IC50 [5] | Ki [5] | IC50 [6] | IC50 [7] | Ki [7]

COCCc1ccc(OCC(O)CNC(C)C)cc1 (centres undefined) [METOPROLOL]
Not Active: IC50 [1] | IC50 [2] | Ki [2] | IC50 [3] | Ki [3] | IC50 [4] | IC50 [5] | Ki [5] | IC50 [6] | IC50 [7] | Ki [7]

CCn1cc(C(=O)O)c(=O)c2cc(F)c(N3CCNCC3)cc21 [NORFLOXACIN]
Not Active: IC50 [1] | IC50 [2] | Ki [2] | IC50 [3] | Ki [3] | IC50 [4] | IC50 [5] | Ki [5] | IC50 [6] | IC50 [7] | Ki [7]

NC1=NC(=O)C(c2ccccc2)O1 (centres undefined) [PEMOLINE]
Not Active: IC50 [1] | IC50 [2] | Ki [2] | IC50 [3] | Ki [3] | IC50 [4] | IC50 [5] | Ki [5] | IC50 [6] | IC50 [7] | Ki [7]
